The text below walks through data of patent publication EP4722219A1 (Gan & Lee Pharmaceuticals Co., Ltd., priority 2023, dated 2024).

The test system of one test is T-47D cells. The experiment in a line: Inhibition of cell proliferation in T-47D cells (CCK-8). The following applies: Homo sapiens, T47D, 144 h, 6 days treatment, CCK-8 cell viability. Format: cell-based. As for the experimental part:
Test Example 2 Inhibitory effect of PROTAC compounds provided by the present invention on cell proliferation in T-47D cells
The complete culture medium required for T-47D cells is 1640 (ATCC, Product number: A10491-01) basal culture medium containing 10% fetal bovine serum. T-47D cells were seeded in 96-well plates at a density of 3,000 cells/well, and different concentrations of PROTAC compounds 1-55 provided in the examples of the present invention and positive control sample ARV-471 (source: Inokai) were prepared to treat the cells and incubated at 37 °C, 5% CO2 cell culture incubator for 6 days. According to the manufacturer's instructions, cell viability was detected using a CCK-8 kit (Beyotime, Product number: C0040). The IC50 of each compound after treating for 6 days was calculated using GraphPadPrism software based on the inhibition rate. Table 2 Inhibition IC50 value of T-47D cell proliferation by PROTAC compounds provided by the present invention and positive control sample

A further test deals with MCF-7 cells. Kind of test: Inhibition of cell proliferation in MCF-7 cells (CCK-8). As to conditions: Homo sapiens, MCF7, 144 h, MCF-7 cell proliferation, 6 days treatment. Format: cell-based. How it is done: Test Example 3 Inhibitory effect of PROTAC compounds provided by the present invention on cell proliferation in MCF-7 cells
The complete culture medium required for MCF-7 cells (source ATCC) is DMEM (gibco, Product number: 11995-065) basal culture medium containing 10% fetal bovine serum. MCF-7 cells were seeded in 96-well plates at a density of 800 cells/well, and different concentrations of PROTAC compounds 1-55 provided in the examples of the present invention and positive control sample ARV-471 (source: Inokai) were prepared to treat the cells and incubated at 37 °C, 5% CO2 cell culture incubator for 6 days. According to the manufacturer's instructions, cell viability was detected using a CCK-8 kit (Beyotime, Product number: C0040). The IC50 of each PROTAC compound after treating for 6 days was calculated using GraphPadPrism software based on the inhibition rate. Table 3 Inhibition IC50 value of MCF-7 cell proliferation by PROTAC compounds of the present invention and positive control sample

For the compound `CN(CC(=O)N1CCC2(CC1)CCC1(CC2)COc2c1ccc1c2CN(C2CCC(=O)NC2=O)C1=O)C1CCC2(CC1)CN(c1ccc([C@@H]3c4ccc(O)cc4CC[C@@H]3c3ccccc3)cc1)C2` (stereo partly drawn) [ER-P-71, 3-(1"-(N-(2-(4-((1R,2S)-6-hydroxy-2-phenyl-1,2,3,4-tetrahydronaphthalen-1-yl)phenyl)-2-azaspiro[3.5]nonan-7-yl)-N-methylglycyl)-6-oxo-6,8-dihydro-2H,7H-dipyridole[furo[2,3-e]isoindole-3,1'-cyclohexane-4',4"-piperidin]-7-yl)piperidine-2,6-dione], the concentration for half-maximal inhibition (IC50) stood at 8.54 nM in the test with T-47D cells and 2020 nM in the test with MCF-7 cells.
For `CN(CC(=O)N1CC2(CCC3(CC2)COc2c3ccc3c2CN(C2CCC(=O)NC2=O)C3=O)C1)C1CCC2(CC1)CN(c1ccc([C@@H]3c4ccc(O)cc4CC[C@@H]3c3ccccc3)cc1)C2` (stereo partly drawn) [ER-P-72, 3-(1-(N-(2-(4-((1R,2S)-6-hydroxy-2-phenyl-1,2,3,4-tetrahydronaphthalen-1-yl)phenyl)-2-azaspiro[3.5]nonan-7-yl)-N-methylglycyl)-6"-oxo-6",8"-dihydro-2"H,7"H-dipyridole[azetidine-3,1'-cyclohexane-4',3"-furo[2,3-e]isoindol]-7"-yl)piperidine-2,6-dione], in that order: 1.34 nM and 14300 nM.
The matching figures for `Cn1c(=O)n(C2CCC(=O)NC2=O)c2ccc3c(c21)OCC31CCN(CC2CCN(c3ccc([C@@H]4c5ccc(O)cc5CC[C@@H]4c4ccccc4)cc3)CC2)CC1` (stereo partly drawn) [ER-P-73, 3-(1'-((1-(4-((1R,2S)-6-hydroxy-2-phenyl-1,2,3,4-tetrahydronaphthalen-1-yl)phenyl)piperidin-4-yl)methyl)-1-methyl-2-oxo-1,2-dihydro-3H,7H-spiro[benzofuro[6,7-d]imidazole-6,4'-piperidin]-3-yl)piperidine-2,6-dione]: 49.4 nM and 3270 nM.
For `Cn1c(=O)n(C2CCC(=O)NC2=O)c2ccc3c(c21)OCC31CCN(C(=O)C2CCN(CC3CCN(c4ccc([C@@H]5c6ccc(O)cc6CC[C@@H]5c5ccccc5)cc4)CC3)CC2)CC1` (some centres unmarked) [ER-P-74], in that order: 1.22 nM and 2100 nM.
Regarding `CN(CC(=O)N1CCC2(CC1)COc1c2ccc2c1n(C)c(=O)n2C1CCC(=O)NC1=O)CC1CCN(c2ccc([C@@H]3c4ccc(O)cc4CC[C@@H]3c3ccccc3)cc2)CC1` (stereo partly drawn) [ER-P-75, 3-(1'-(N-((1-(4-((1R,2S)-6-hydroxy-2-phenyl-1,2,3,4-tetrahydronaphthalen-1-yl)phenyl)piperidin-4-yl)methyl)-N-methylglycyl)-1-methyl-2-oxo-1,2-dihydro-3H,7H-spiro[benzofuro[6,7-d]imidazole-6,4'-piperidin]-3-yl)piperidine-2,6-dione], the IC50 worked out at 1.16 nM in the test with T-47D cells and 3000 nM in the test on MCF-7 cells.
For `O=C1CCC(N2Cc3c(ccc4c3OCC43CCC4(CCN(C(=O)C5CCN(c6ccc([C@@H]7c8ccc(O)cc8CC[C@@H]7c7ccccc7)cc6)CC5)CC4)CC3)C2=O)C(=O)N1` (stereo partly drawn) [ER-P-76, 3-(1"-(1-(4-((1R,2S)-6-hydroxy-2-phenyl-1,2,3,4-tetrahydronaphthalen-1-yl)phenyl)piperidine-4-carbonyl)-6-oxo-6,8-dihydro-2H,7H-dipyridole[furo[2,3-e]isoindole-3,1'-cyclohexane-4',4"-piperidin]-7-yl)piperidine-2,6-dione], in that order: 5.75 nM and above 100000 nM.
As for `Cn1c(=O)n(C2CCC(=O)NC2=O)c2ccc3c(c21)C1(CCN(C2CCN(C(=O)C4CCN(c5ccc([C@@H]6c7ccc(O)cc7CC[C@@H]6c6ccccc6)cc5)CC4)CC2)CC1)CO3` (stereo partly drawn) [ER-P-77, 3-(1'-(1-(4-(((1R,2S)-6-hydroxy-2-phenyl-1,2,3,4-tetrahydronaphthalen-1-yl)phenyl)piperidine-4-carbonyl)piperidin-4-yl)-1-methyl-2-oxo-1,2-dihydro-3H,7H-spiro[benzofuro[4,5-d]imidazole-8,4'-piperidin]-3-yl)piperidine-2,6-dione], the half-maximal inhibitory concentration (IC50) in the test with T-47D cells came to 1.87 nM; in the test with MCF-7 cells, 84.7 nM.

By IC50 is commonly meant the concentration at which inhibition is half-maximal. Low values mean higher potency, high ones lower potency.
